In US12383607B2, “Topical composition for improved healing of open wounds” (Eleos Pharmaceuticals, Inc., priority 2017, dated 2025):

System: wound
Assay: Patient wound healing study
Assay type: in vivo, human
Conditions: topical application directly in the wound
Description: Thus, for example, a skin ailment could be treated using a disclosed composition as follows: • 1. Clean the skin ailment with soap and warm water, with either a wash cloth or gauze sponge. Cleaning may be lightly abrasive as the subject tolerates. Alternatively, the skin ailment can be cleaned with gauze, moistened with saline and hibiclens. Again, the cleaning may be lightly abrasive as the subject tolerates. • 2. Rinse the ailment thoroughly with warm water or saline so no soap residue remains. • 3. Apply the topical composition to a Q-Tip applicator and lightly cover the surface of the ailment with the composition. […] If eschar is present, apply the composition to the edge of the eschar and beneath the edge of the eschar. The composition need not be applied to the top of the eschar. • 4. Cover the ailment with dry gauze. Wrap and secure the gauze with Kling, Kerlex roll, or Ace wrap. The wrap should be loosely applied so as to secure the dressing but to not apply pressure to the ailment site. • 5. If there is surrounding dermatitis (redness), allow the area to dry (no wrap need be applied).
3. Summary of Patient Wound Healing Study
A summary of the results of a patient wound healing study are illustrated in Table 2 below. The average blood sugar (BS) change by age and class are shown in FIG. 2A and FIG. 2B, respectively. […]

insulin
healing: significantly enhances healing | wound glucose level: decreases the wound glucose level
